According to PMC12435690, “KYLO-0603, a novel liver-targeting, thyroid hormone receptor-β agonist for the inhibition of MASH progression” (PLOS One, 2025):

Assays:
[1] = tested on: MASH mouse model (F2 ~ 3); test: MASH mouse model (F2~3) induced with HFD and CCl4; format: in vivo, C57BL/6J mice; parameters: Steatosis score / Lobular inflammation score / Ballooning score / NAFLD activity score / Fibrosis Score: scale not given here
Procedure: A total of 80 5-week-old C57BL/6J male mice were randomly assigned to two groups based on their body weight: a control group (n = 10) and a high-fat diet group (HFD, D12492, n = 70). During the eight-week feeding period, the mice in the two groups were provided with the corresponding diets, including shavings bedding, and their weights were recorded once a week. The change of the weight of each group of mice at a given time were recorded. […] The control diet group was provided with a control diet supplemented with the solvent vehicle, while the HFD control group was given a high-fat diet with the same supplement. The remaining […] groups were provided a high-fat diet containing the solvent and administered a range of doses of Kylo-0603, namely, 0.1 mg/kg, 0.3 mg/kg, 1 mg/kg, 3 mg/kg, and 10 mg/kg. The HFD control group was administered intraperitoneal injections of 0.2 ml/kg CCl4 twice a week for 8 weeks, during which time the mice were fed the same diets as before. The mice were weighed weekly, and the dosage for each week was determined based on their body weight at the commencement of that week. After a period of fasting of between 5 and 6 hours on the day following the final administration of the drug, the mice in each group were euthanized, whole blood was collected from either the orbits or the heart, and the serum was separated and stored at −80°C. The heart and liver tissues of the mice in each group were weighed and photographed. The heart tissues were then quickly frozen in liquid nitrogen and stored in a refrigerator at −80°C, and the middle lobe of the liver was divided into four parts. Two of these samples were quickly frozen in liquid nitrogen and stored at −80°C (for RNA sequencing). The remaining two portions were fixed in a 4% Paraformaldehyde solution and subsequently dehydrated for paraffin embedding and OCT embedding. […] For the quantification of hepatic lipid content, liver tissues were meticulously homogenized in isopropanol (1:9 tissue to isopropanol by mass/volume) on ice. The homogenate was then incubated overnight at 4°C and subsequently centrifuged to […]. The resulting solution was analyzed for TG and Chol using a Hitachi 7020 automated hematochemistry system.
The samples were then washed with pure water.

in vitro = settings: beagle, dog, plasma
Procedure: We evaluated the metabolic stability of Kylo-0603 in the plasma of CD-1 mice, Sprague–Dawley (SD) rats, beagle dogs, cynomolgus monkeys, and humans. The plasma from the five species was mixed with Kylo-0603 (2 μM) and incubated at 37°C in a thermostatic water tank. The plasma concentrations of Kylo-0603 were monitored via LC-MS/MS at 0, 10, 30, 60, and 120 min.

HFD-induced obese mice = test: HFD-induced obese mice, oral once daily treatment; settings: for fat content reduction / increase in the percentage of lean mass / reduction in Chol level / reduction in LDL-C level: vs HFD control; for Ballooning score / Fibrosis Score / Lobular inflammation score / NAFLD activity score / Steatosis score: DIO mice, HFD
Procedure: Experiments were performed on 112 (n = 16/group) male C57BL/6J mice (5 weeks). After 3 days of acclimatization, the animals were randomly divided according to body weight into a control group (Chow Diet) and a HFD group (HFD, 60% calories as fat, Cat# D12492, Research Diet, Jiangsu Xietong Pharmaceutical Bioengineering Co., Ltd.). The mice were fed with the corresponding diets for 16 weeks (with bedding shavings and a high-fat diet changed twice a week), during which the bedding shavings and high-fat diet (HFD) were refreshed twice weekly (see S1 Fig). Body weights were recorded on a weekly basis throughout this period. […] A separate cohort of mice, fed a standard chow diet, served as normal controls and received daily oral gavages of the vehicle. At the end of the experiment, the mice were fasted for 6 hours and then sacrificed. The animals were euthanized by CO2 inhalation and blood were collected along with liver and heart tissues. Collected blood samples were centrifuged to obtain the serum for the detection of cholesterol, triglyceride, and low-density lipoprotein cholesterol. The heart and liver tissues were weighed and photographed. The livers and hearts of the mice were rapidly removed and washed with cold saline. Half of the left lobe of liver was fixed in 4% neutral paraformaldehyde, and the remaining part of livers and hearts were snap-frozen and stored at −80°C for further analysis. The concentrations of serum lipids and liver enzymes from orbital or cardiac blood were determined by measuring triglycerides (TG), cholesterol (Chol), Low-density lipoprotein cholesterol (LDL-C), alanine transaminase (ALT), and aspartate transaminase (AST) levels using a Hitachi 7020 automated hematology laboratory and a Wako kit.
The dewaxed tissue slides were incubated in the alcohol-free hematoxylin staining solution for a period of 3–5 minutes, followed by thorough rinsing with running tap water. The slides were then subjected to differentiated and bluing for several seconds, after which they underwent sequential dehydration through a series of ethanol solutions with increasing concentrations (50%, 70%, 85%, and 95%). They were then subjected to eosin staining for a period of 5–10 minutes. The slides were then dehydrated sequentially with 95%, 100%, and 100% ethanol before being cleared with xylene. Finally, the slides were sealed with neutral gum, dried, and imaged.
The frozen sections were immersed in 60% isopropyl alcohol for 3–5 minutes, followed by immersion in Oil Red staining solution for 3–5 minutes. The samples were then washed with pure water. Following a wash with pure water, the nuclei were restained with hematoxylin, after which the sections were sealed with 50% glycerol, dried and photographed for imaging.
The dewaxed slides were rinsed in running water, stained with Sirius Red for 8–10 minutes, washed slightly in anhydrous ethanol, dehydrated, made transparent by gradient ethanol and xylene, and finally sealed with neutral gum, dried and photographed for imaging.

[2] = 3 mg/kg, 8 weeks, vs HFD + CCl4 + Vehicle
[3] = 10 mg/kg, 8 weeks, vs HFD + CCl4 + Vehicle
[4] = abstract: MASH mouse model, maximum effect

Compound: CC(=O)N[C@H]1[C@H](OCCCCCCNC(=O)CCOCC(COCCC(=O)NCCCCCCO[C@@H]2O[C@H](CO)[C@H](O)[C@H](O)[C@H]2NC(C)=O)(COCCC(=O)NCCCCCCO[C@@H]2O[C@H](CO)[C@H](O)[C@H](O)[C@H]2NC(C)=O)NC(=O)CCCCCNC(=O)COc2cc(C)c(Cc3ccc(O)c(C(C)C)c3)c(C)c2)O[C@H](CO)[C@H](O)[C@@H]1O [Kylo-0603]
- decrease of fibrosis score ([1]; 3 mg/kg and 10 mg/kg, 8 weeks, vs HFD + CCl4 + Vehicle): 0.6 points
- ALT decrease ([1]; 3 mg/kg, 8 weeks, serum): 73.8%
- AST decrease ([1]; 3 mg/kg, 8 weeks, serum): 76.3%
- decrease in ballooning degeneration score [1, 2]: 0.7 points
- reduction in hepatic steatosis score [1, 2]: exceeding 1.0 points
- reduction in inflammation score [1, 2]: exceeding 1.0 points
- reduction of NAS (NAFLD Activity Score) [1, 2]: 3.5 points
- decrease in ballooning degeneration score [1, 3]: 0.8 points
- reduction in hepatic steatosis score [1, 3]: exceeding 1.0 points
- reduction in inflammation score [1, 3]: exceeding 1.0 points
- reduction of NAS (NAFLD Activity Score) [1, 3]: 3.7 points
- TSH levels ([1]; 8 weeks, blood): decreasing trends
- levels of thyroid hormones T3, fT3, T4 and fT4 ([1]; 8 weeks, blood): increasing trends
- Ballooning score ([1]; HFD + CCl4, 0.1 mg/kg, 8 weeks): 1.4 ± 0.5
- Fibrosis Score ([1]; HFD + CCl4, 0.1 mg/kg, 8 weeks): 2.8 ± 0.4
- Lobular inflammation score ([1]; HFD + CCl4, 0.1 mg/kg, 8 weeks): 2.4 ± 0.5
- NAFLD activity score ([1]; HFD + CCl4, 0.1 mg/kg, 8 weeks): 4.7 ± 0.9
- Steatosis score ([1]; HFD + CCl4, 0.1 mg/kg, 8 weeks): 0.8 ± 1.0
- Ballooning score ([1]; HFD + CCl4, 0.3 mg/kg, 8 weeks): 1.4 ± 0.5
- Fibrosis Score ([1]; HFD + CCl4, 0.3 mg/kg, 8 weeks): 2.3 ± 0.5
- Lobular inflammation score ([1]; HFD + CCl4, 0.3 mg/kg, 8 weeks): 2.2 ± 0.4
- NAFLD activity score ([1]; HFD + CCl4, 0.3 mg/kg, 8 weeks): 4.0 ± 0.9
- Steatosis score ([1]; HFD + CCl4, 0.3 mg/kg, 8 weeks): 0.3 ± 0.5
- Ballooning score ([1]; HFD + CCl4, 1 mg/kg, 8 weeks): 2.0 ± 0.0
- Fibrosis Score ([1]; HFD + CCl4, 1 mg/kg, 8 weeks): 2.3 ± 0.5
- Lobular inflammation score ([1]; HFD + CCl4, 1 mg/kg, 8 weeks): 2.2 ± 0.4
- NAFLD activity score ([1]; HFD + CCl4, 1 mg/kg, 8 weeks): 4.3 ± 0.5
- Steatosis score ([1]; HFD + CCl4, 1 mg/kg, 8 weeks): 0.1 ± 0.3
- Ballooning score ([1]; HFD + CCl4, 3 mg/kg, 8 weeks): 1.1 ± 0.3
- Fibrosis Score ([1]; HFD + CCl4, 3 mg/kg, 8 weeks): 2.0 ± 0.0
- Lobular inflammation score ([1]; HFD + CCl4, 3 mg/kg, 8 weeks): 1.4 ± 0.5
- NAFLD activity score ([1]; HFD + CCl4, 3 mg/kg, 8 weeks): 2.8 ± 1.0
- Steatosis score ([1]; HFD + CCl4, 3 mg/kg, 8 weeks): 0.2 ± 0.4
- Ballooning score ([1]; HFD + CCl4, 10 mg/kg, 8 weeks): 1.0 ± 0.7
- Fibrosis Score ([1]; HFD + CCl4, 10 mg/kg, 8 weeks): 2.0 ± 0.0
- Lobular inflammation score ([1]; HFD + CCl4, 10 mg/kg, 8 weeks): 1.1 ± 0.5
- NAFLD activity score ([1]; HFD + CCl4, 10 mg/kg, 8 weeks): 2.6 ± 1.0
- Steatosis score ([1]; HFD + CCl4, 10 mg/kg, 8 weeks): 0.4 ± 1.0
- decrease of fibrosis score ([1]; abstract): 0.6 points
- decrease of ballooning score ([1]; abstract, maximum effect): 0.8 points
- decrease of inflammation score ([1]; abstract, maximum effect): 1.8 points
- reduction of NAS ([1]; abstract, maximum effect): up to 3.7 points
- lowering of LDL-C levels [1, 4]: up to 88.2%
- lowering of serum cholesterol levels [1, 4]: ≤ 69.2%
- half-life at 2 μM (in vitro): 5.93 h
- body weight reduction vs HFD control group (HFD-induced obese mice; 0.1 mg/kg PO once daily, 10 weeks): 0.8%
- fat content reduction (HFD-induced obese mice; 0.1 mg/kg, 8 weeks): 8.96%
- increase in the percentage of lean mass (HFD-induced obese mice; 0.1 mg/kg, 8 weeks): 5.32%
- reduction in Chol level (HFD-induced obese mice; 0.1 mg/kg, 10 weeks): 30.6%
- reduction in LDL-C level (HFD-induced obese mice; 0.1 mg/kg, 10 weeks): 58.0%
- body weight reduction vs HFD control group (HFD-induced obese mice; 0.3 mg/kg PO once daily, 10 weeks): 4.8%
- fat content reduction (HFD-induced obese mice; 0.3 mg/kg, 8 weeks): 9.16%
- increase in the percentage of lean mass (HFD-induced obese mice; 0.3 mg/kg, 8 weeks): 10.95%
- reduction in Chol level (HFD-induced obese mice; 0.3 mg/kg, 10 weeks): 35.9%
- reduction in LDL-C level (HFD-induced obese mice; 0.3 mg/kg, 10 weeks): 72.7%
- body weight reduction vs HFD control group (HFD-induced obese mice; 1 mg/kg PO once daily, 10 weeks): 3.8%
- fat content reduction (HFD-induced obese mice; 1 mg/kg, 8 weeks): 14.07%
- increase in the percentage of lean mass (HFD-induced obese mice; 1 mg/kg, 8 weeks): 13.52%
- reduction in Chol level (HFD-induced obese mice; 1 mg/kg, 10 weeks): 47.9%
- reduction in LDL-C level (HFD-induced obese mice; 1 mg/kg, 10 weeks): 81.8%
- average reduction of triglyceride content in liver homogenates (HFD-induced obese mice; 3 mg/kg): up to 36.4%
- body weight reduction vs HFD control group (HFD-induced obese mice; 3 mg/kg PO once daily, 10 weeks): 13.1%
- reduction in Chol level (HFD-induced obese mice; 3 mg/kg, 2 weeks): 52.0%
- reduction in LDL-C level (HFD-induced obese mice; 3 mg/kg, 2 weeks): 84.0%
- fat content reduction (HFD-induced obese mice; 3 mg/kg, 8 weeks): 26.15%
- increase in the percentage of lean mass (HFD-induced obese mice; 3 mg/kg, 8 weeks): 21.94%
- reduction in Chol level (HFD-induced obese mice; 3 mg/kg, 10 weeks): 53.9%
- reduction in LDL-C level (HFD-induced obese mice; 3 mg/kg, 10 weeks): 79.7%
- body weight reduction vs HFD control group (HFD-induced obese mice; 10 mg/kg PO once daily, 10 weeks): 15.8%
- reduction in Chol level (HFD-induced obese mice; 10 mg/kg, 2 weeks): 64.5%
- reduction in LDL-C level (HFD-induced obese mice; 10 mg/kg, 2 weeks): 85.8%
- fat content reduction (HFD-induced obese mice; 10 mg/kg, 8 weeks): 44.35%
- increase in the percentage of lean mass (HFD-induced obese mice; 10 mg/kg, 8 weeks): 37.91%
- reduction in Chol level (HFD-induced obese mice; 10 mg/kg, 10 weeks): 69.2%
- reduction in LDL-C level (HFD-induced obese mice; 10 mg/kg, 10 weeks): 88.2%
- body length (HFD-induced obese mice; 0.1-10 mg/kg, 8 weeks): not affected
- bone density (HFD-induced obese mice; 0.1-10 mg/kg, 8 weeks): not affected
- cholesterol content in liver homogenates (HFD-induced obese mice; 2 and 10 weeks): did not exert a notable influence
- Ballooning score (HFD-induced obese mice; 0.1 mg/kg, 8 weeks): 1.6 ± 0.5
- Fibrosis Score (HFD-induced obese mice; 0.1 mg/kg, 8 weeks): 0.6 ± 0.5
- Lobular inflammation score (HFD-induced obese mice; 0.1 mg/kg, 8 weeks): 1.0 ± 0.0
- NAFLD activity score (HFD-induced obese mice; 0.1 mg/kg, 8 weeks): 5.0 ± 0.9
- Steatosis score (HFD-induced obese mice; 0.1 mg/kg, 8 weeks): 2.4 ± 1.1
- Ballooning score (HFD-induced obese mice; 0.3 mg/kg, 8 weeks): 1.4 ± 0.5
- Fibrosis Score (HFD-induced obese mice; 0.3 mg/kg, 8 weeks): 0.4 ± 0.5
- Lobular inflammation score (HFD-induced obese mice; 0.3 mg/kg, 8 weeks): 1.3 ± 0.5
- NAFLD activity score (HFD-induced obese mice; 0.3 mg/kg, 8 weeks): 4.6 ± 1.2
- Steatosis score (HFD-induced obese mice; 0.3 mg/kg, 8 weeks): 2.0 ± 1.4
- Ballooning score (HFD-induced obese mice; 1 mg/kg, 8 weeks): 1.8 ± 0.5
- Fibrosis Score (HFD-induced obese mice; 1 mg/kg, 8 weeks): 0.4 ± 0.5
- Lobular inflammation score (HFD-induced obese mice; 1 mg/kg, 8 weeks): 1.1 ± 0.4
- NAFLD activity score (HFD-induced obese mice; 1 mg/kg, 8 weeks): 4.4 ± 1.1
- Steatosis score (HFD-induced obese mice; 1 mg/kg, 8 weeks): 1.5 ± 0.8
- Ballooning score (HFD-induced obese mice; 3 mg/kg, 8 weeks): 1.1 ± 1.0
- Fibrosis Score (HFD-induced obese mice; 3 mg/kg, 8 weeks): 0.4 ± 0.5
- Lobular inflammation score (HFD-induced obese mice; 3 mg/kg, 8 weeks): 1.1 ± 0.4
- NAFLD activity score (HFD-induced obese mice; 3 mg/kg, 8 weeks): 3.4 ± 2.1
- Steatosis score (HFD-induced obese mice; 3 mg/kg, 8 weeks): 1.1 ± 1.0
- Ballooning score (HFD-induced obese mice; 10 mg/kg, 8 weeks): 1.0 ± 0.9
- Fibrosis Score (HFD-induced obese mice; 10 mg/kg, 8 weeks): 0.3 ± 0.5
- Lobular inflammation score (HFD-induced obese mice; 10 mg/kg, 8 weeks): 1.0 ± 0.0
- NAFLD activity score (HFD-induced obese mice; 10 mg/kg, 8 weeks): 3.2 ± 1.3
- Steatosis score (HFD-induced obese mice; 10 mg/kg, 8 weeks): 1.2 ± 0.8
- liver weight (HFD-induced obese mice; all dose groups (0.1-10 mg/kg), 10 weeks): significantly decreased
- effect on heart weight (HFD-induced obese mice; various doses (0.1-10 mg/kg), 10 weeks): not significant
